These results are taken from ChEMBL document CHEMBL4477208, “Discovery and Rational Design of Pteridin-7(8H)-one-Based Inhibitors Targeting FMS-like Tyrosine Kinase 3 (FLT3) and Its Mutants” (J Med Chem, 2016).

In data set [1] the test system is MV4-11. As to the kind of experiment: Induction of apoptosis in human MV4-11 cells assessed as late apoptotic cells at 10 nM after 48 hrs by annexin V/propidium iodide staining based FACS analysis (reference value: 3.01%). In kind it is functional. For orientation: A flow cytometer gives signals particle by particle.
The subject of data set [2] is MV4-11. Briefly: Induction of apoptosis in human MV4-11 cells assessed as early apoptotic cells at 1000 nM after 48 hrs by annexin V/propidium iodide staining based FACS analysis (reference value: 6.31%). In kind it is functional.
Data set [3] deals with Tyrosine-protein kinase JAK1 (Homo sapiens) (UniProt P23458). As to the kind of experiment: Inhibition of human JAK1 expressed in mammalian or bacterial system assessed as remaining enzyme activity at 1 uM relative to untreated control.
Data set [4] deals with MV4-11. As to the kind of experiment: Induction of apoptosis in human MV4-11 cells assessed as early apoptotic cells at 1 nM after 48 hrs by annexin V/propidium iodide staining based FACS analysis (reference value: 6.31%). In kind it is functional.
In data set [5] the test system is MV4-11. As to the kind of experiment: Cell cycle arrest in human MV4-11 cells assessed as accumulation at G0/G1 phase at 1000 nM after 48 hrs by PI/RNase staining based FACS analysis (reference value: 69.55%). In kind it is functional.
Data set [6] has as its target Receptor-type tyrosine-protein kinase FLT3 (Homo sapiens, UniProt P36888, D835Y). As to the kind of experiment: Binding affinity to human partial length FLT3 D835Y mutant (580 to 969 residues) expressed in bacterial expression system after 1 hr.
Data set [7] has as its system MV4-11. As to the kind of experiment: Cell cycle arrest in human MV4-11 cells assessed as accumulation at G2 phase at 1000 nM after 48 hrs by PI/RNase staining based FACS analysis (reference value: 13.95%). In kind it is functional.
The subject of data set [8] is MV4-11. Briefly: Induction of apoptosis in human MV4-11 cells assessed as dead cells after 48 hrs by annexin V/propidium iodide staining based FACS analysis. In kind it is functional, cell-based.
Data set [9] has as its target T1, Receptor-type tyrosine-protein kinase FLT3 (Homo sapiens, UniProt P36888).
T1 sequence (P36888 whole entry): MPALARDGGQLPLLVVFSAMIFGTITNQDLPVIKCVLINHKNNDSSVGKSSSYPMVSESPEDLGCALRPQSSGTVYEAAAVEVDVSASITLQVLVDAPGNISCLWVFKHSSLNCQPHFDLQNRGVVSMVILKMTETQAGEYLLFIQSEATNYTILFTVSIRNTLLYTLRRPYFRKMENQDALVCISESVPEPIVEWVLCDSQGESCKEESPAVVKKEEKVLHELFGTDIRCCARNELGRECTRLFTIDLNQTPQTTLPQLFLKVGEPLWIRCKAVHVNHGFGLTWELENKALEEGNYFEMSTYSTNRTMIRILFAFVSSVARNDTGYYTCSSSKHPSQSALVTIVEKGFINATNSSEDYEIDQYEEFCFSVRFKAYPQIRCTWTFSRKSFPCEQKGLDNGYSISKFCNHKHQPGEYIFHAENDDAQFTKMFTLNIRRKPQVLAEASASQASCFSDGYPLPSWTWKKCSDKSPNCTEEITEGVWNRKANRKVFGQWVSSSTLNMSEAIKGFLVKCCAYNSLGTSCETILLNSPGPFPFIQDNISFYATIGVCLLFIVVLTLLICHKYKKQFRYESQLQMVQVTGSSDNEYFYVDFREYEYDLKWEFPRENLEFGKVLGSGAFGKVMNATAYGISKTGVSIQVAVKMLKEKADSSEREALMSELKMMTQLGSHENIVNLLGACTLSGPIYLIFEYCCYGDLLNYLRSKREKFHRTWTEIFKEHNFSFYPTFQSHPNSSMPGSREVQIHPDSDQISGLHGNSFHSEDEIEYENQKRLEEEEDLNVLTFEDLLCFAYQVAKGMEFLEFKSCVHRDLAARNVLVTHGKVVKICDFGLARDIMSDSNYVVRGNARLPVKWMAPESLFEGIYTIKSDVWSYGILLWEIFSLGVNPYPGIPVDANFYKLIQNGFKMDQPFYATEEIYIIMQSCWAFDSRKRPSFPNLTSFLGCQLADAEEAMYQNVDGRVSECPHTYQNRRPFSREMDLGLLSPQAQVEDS
Briefly: Binding affinity to auto-inhibited human partial length wild type FLT3 (564 to 969 residues) expressed in mammalian expression system after 1 hr.

For data set [10], the system named is MV4-11. As to the kind of experiment: Cell cycle arrest in human MV4-11 cells assessed as accumulation at G0/G1 phase at 100 nM after 48 hrs by PI/RNase staining based FACS analysis (reference value: 69.55%). In kind it is functional.
For data set [11], the system named is MV4-11. Briefly: Induction of apoptosis in human MV4-11 cells assessed as viable cells at 100 nM after 48 hrs by annexin V/propidium iodide staining based FACS analysis (reference value: 90.60%). To be noted: MV4-11, 48 h, read-out: Activity. In kind it is functional.
Data set [12] is described as follows: Clearance in overnight fasted Sprague-Dawley rat plasma at 1 mg/kg, iv up to 24 hrs by LC-MS/MS analysis. In kind it is ADME, organism-based.
For data set [13], the system named is MV4-11. As to the kind of experiment: Cell cycle arrest in human MV4-11 cells assessed as accumulation at subG1 phase at 100 nM after 48 hrs by PI/RNase staining based FACS analysis (reference value: 0%). In kind it is functional.
In data set [14] the test system is MV4-11. Briefly: Antitumor activity against human MV4-11 cells xenografted in nude BALB/c mouse assessed as tumor growth inhibition at 50 mg/kg, po qd for 14 days measured every 2 days. In kind it is functional. To be noted: MV4-11, po, read-out: TGI. (A xenograft is tissue or cells of one species grown in another, often human tumour cells in immunodeficient mice.)

The subject of data set [15] is NCI-H146. As to the kind of experiment: Antiproliferative activity against human NCI-H146 cells after 72 hrs by MTT assay. In kind it is functional, cell-based. To be noted: NCI-H146, 72 h. On the technique in general: Tetrazolium dyes change colour on reduction, which living cells bring about.
In data set [16] the test system is MV4-11. As to the kind of experiment: Cell cycle arrest in human MV4-11 cells assessed as accumulation at G0/G1 phase at 10 nM after 48 hrs by PI/RNase staining based FACS analysis (reference value: 69.55%). In kind it is functional.
The subject of data set [17] is MV4-11. Briefly: Cell cycle arrest in human MV4-11 cells assessed as accumulation at G0/G1 phase at 1 nM after 48 hrs by PI/RNase staining based FACS analysis (reference value: 69.55%). In kind it is functional.
The test system of data set [18] is NCI-H187. Briefly: Antiproliferative activity against human NCI-H187 cells after 72 hrs by MTT assay. In kind it is functional, cell-based. To be noted: NCI-H187, 72 h.
Data set [19] deals with MV4-11. Briefly: Induction of apoptosis in human MV4-11 cells assessed as necrotic cells at 10000 nM after 48 hrs by annexin V/propidium iodide staining based FACS analysis (reference value: 0.05%). In kind it is functional.
Data set [20] deals with SW-620. Briefly: Antiproliferative activity against human SW620 cells after 72 hrs by SRB assay. In kind it is functional, cell-based. Particulars: SW-620, 72 h.
In data set [21] the test system is MV4-11. As to the kind of experiment: Cell cycle arrest in human MV4-11 cells assessed as accumulation at S phase at 1000 nM after 48 hrs by PI/RNase staining based FACS analysis (reference value: 16.50%). In kind it is functional.
Data set [22] has as its system MV4-11. Briefly: Cell cycle arrest in human MV4-11 cells assessed as accumulation at S phase at 1 nM after 48 hrs by PI/RNase staining based FACS analysis (reference value: 16.50%). In kind it is functional.
For data set [23], the system named is MV4-11. As to the kind of experiment: Induction of apoptosis in human MV4-11 cells assessed as late apoptotic cells at 100 nM after 48 hrs by annexin V/propidium iodide staining based FACS analysis (reference value: 3.01%). In kind it is functional.
Data set [24] can be described thus: Volume of distribution at steady state in overnight fasted Sprague-Dawley rat plasma at 1 mg/kg, iv up to 24 hrs by LC-MS/MS analysis. Particulars: read-out: Vdss. In kind it is ADME, organism-based.

Bounds are passed on as bounds.

Chain of Tyrosine-protein kinase JAK1 (Homo sapiens) (P23458 whole entry): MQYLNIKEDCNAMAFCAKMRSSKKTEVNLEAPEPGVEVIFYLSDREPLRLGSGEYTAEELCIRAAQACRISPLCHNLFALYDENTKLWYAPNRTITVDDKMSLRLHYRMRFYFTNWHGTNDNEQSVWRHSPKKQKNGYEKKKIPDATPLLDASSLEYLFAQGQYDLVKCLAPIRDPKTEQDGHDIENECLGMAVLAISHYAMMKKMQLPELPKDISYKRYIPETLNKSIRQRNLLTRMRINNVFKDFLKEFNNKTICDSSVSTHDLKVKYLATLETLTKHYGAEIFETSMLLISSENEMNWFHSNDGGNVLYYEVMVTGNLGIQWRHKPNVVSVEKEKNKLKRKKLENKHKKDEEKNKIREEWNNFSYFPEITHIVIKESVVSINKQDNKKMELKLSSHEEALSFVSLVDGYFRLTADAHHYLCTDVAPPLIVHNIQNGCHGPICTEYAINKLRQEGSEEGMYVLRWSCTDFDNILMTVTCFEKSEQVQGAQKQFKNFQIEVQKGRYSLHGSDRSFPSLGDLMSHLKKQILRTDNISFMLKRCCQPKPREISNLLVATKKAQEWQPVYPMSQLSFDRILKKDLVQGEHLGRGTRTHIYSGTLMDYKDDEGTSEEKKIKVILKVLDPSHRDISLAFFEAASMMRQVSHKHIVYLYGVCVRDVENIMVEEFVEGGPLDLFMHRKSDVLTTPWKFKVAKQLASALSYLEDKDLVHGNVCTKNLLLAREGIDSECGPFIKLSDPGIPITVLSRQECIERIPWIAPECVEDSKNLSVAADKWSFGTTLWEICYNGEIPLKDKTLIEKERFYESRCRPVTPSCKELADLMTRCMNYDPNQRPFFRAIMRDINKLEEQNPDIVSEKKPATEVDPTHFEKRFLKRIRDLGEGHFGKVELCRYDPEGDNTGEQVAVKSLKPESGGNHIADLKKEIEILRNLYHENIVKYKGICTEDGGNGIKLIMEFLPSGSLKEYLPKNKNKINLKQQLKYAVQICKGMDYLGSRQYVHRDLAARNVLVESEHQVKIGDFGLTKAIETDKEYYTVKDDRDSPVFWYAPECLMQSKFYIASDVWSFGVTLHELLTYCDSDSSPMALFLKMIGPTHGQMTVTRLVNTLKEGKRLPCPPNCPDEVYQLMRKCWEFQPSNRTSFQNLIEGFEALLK

For the compound `Cc1cc(Nc2ncc3ncc(=O)n(-c4ccc(N)cc4)c3n2)ccc1N1CCN(C)CC1`, the Activity in data set [1] is 3.34%; in data set [2], 38.4%; in data set [3] it was under 1%; in data set [4], 6.09%; in data set [5] it was 80.55%; in [7] it was 0%. Also, the Activity entry is “Dose-dependent effect” in data set [8]; 85.92% in data set [10]; 12% in [13]; 70.2% in data set [16]; 65.64% in data set [17]; 0.02% in [19]. Besides, the Activity in [21] is on record as 3.07%; in data set [22], 21.77%; in [23], 16.4%. For the same compound, the Kd (commonly the concentration at which binding is half-saturated) in data set [6] amounted to 2 nM; in data set [9], 79 nM. Moreover, in data set [11], the viability at 0.1 µM was determined as 60.3%. The clearance (in general, the rate of elimination divided by the concentration) in data set [12] is 142 mL/min/kg. Further, the inhibition in vivo at 50 mg/kg in data set [14] was found to be 128%. In addition, the half-maximal inhibitory concentration (IC50) (as a rule, the concentration that inhibits the measured activity by half) is over 10 µM in data set [15], over 10 µM in data set [18] and 2530 nM in data set [20]. The Vd in data set [24] came out at 27.7 L/kg.
